Laboratory results taken from patent publication US20160199491A1, “Compounds compositions and methods including thermally labile moieties” (Biosearch Technologies, Inc., priority 2014, published 2016).

Assay: Deprotection of a Boc-protected PCR primer at 94° C. in water, PCR buffer or TEAA, tracked by reverse-phase HPLC and mass spec
Format: physicochemical
Procedure: The RNaseP forward primer 19-mer [AGATTTGGACCTGCGAGCG](SEQ ID NO: 1) was synthesized on Boc-dG CPG (1 μmol) with Boc dA, dC, and dG amidites. The fully deprotected mass for this primer is 5868 g/mol and the expected mass for Boc protection is […] [15 Boc residues.100 amu/Boc=1500 added]. Deprotection of side chain protecting groups was performed with 25% 2-methoxyethylamine in methanol (1 mL) for 3 hrs at room temp, remove CPG and evaporate to dryness, re-dissolve in DI water (1 mL). The DMT was […] because the Boc group can be used as a hydrophobic handle. The product was desalted with 20-50 micron polystyrene beads packed in a 1 mL cartridge and eluted in 20% ACN/H2O.
The desalted Boc-primer was aliquoted into three microfuge tubes of 100 uL each. The samples were dried down and brought up in 1 mL of house DI water. Only water was added to the first tube. To the second tube 1 mL of PCR buffer pH 8.5, 1× with MgCl2, was added to a final concentration of 6 mM (standard PCR concentrations). To the third tube TEAA was added to give a final concentration of 0.025 N. Each of the three samples was aliquoted into ten 200 uL thin-walled PCR tubes for a total of 30 tubes. All primer preparation was done at room temperature.
An ABI 9700 Thermocycler was preheated to 94° C. Each sample was placed into the heat block and removed at the time point and placed on dry ice to stop the reaction. As a negative control, the T=0 sample was not heated and placed directly in ice at the beginning of the experiment. The samples were allowed to thaw at room temperature and transferred to a 96-well plate for HPLC and mass spectroscopy analysis.
For each time point, reverse-phase and mass spec data were acquired to track the removal of the Boc protecting group. The Boc protected primer is not a single species but rather a collection at various stages of protection.

Substance: Boc-primer: RNaseP forward primer 19-mer [AGATTTGGACCTGCGAGCG] (SEQ ID NO: 1) synthesized with Boc dA, dC, and dG amidites (listed as DNA, chemistry not fully specified)
- deprotection after 10 minutes under normal PCR buffering (10 minutes, PCR buffer pH 8.5, 1× with MgCl2 6 mM): deprotected
- Boc groups after 10 minutes in TEAA (10 minutes, TEAA 0.025 N): some remained
- Boc groups after 10 minutes (10 minutes, samples in water, PCR buffer pH 8.5 with MgCl2 6 mM, TEAA 0.025 N): almost all of the Boc groups were gone
- Boc groups after 15 minutes in TEAA (15 minutes, TEAA 0.025 N): all were removed
